Laboratory results from paper PMC8163982, “Partial agonism improves the anti-hyperglycaemic efficacy of an oxyntomodulin-derived GLP-1R/GCGR co-agonist” (Molecular Metabolism, 2021).
Where a SMILES comes first, the peptide text is derived from it. [ ]: non-standard residue; d: D form. Aib = CC(C)(N)C(=O)O

Legend:
[1] = biological target: T1, human GIPR (Homo sapiens, UniProt P48546); assay: cAMP production (HTRF) in PathHunter CHO-K1 cells expressing GIPR; format: cell-based; conditions: 30 min, mean ± SEM, n = 6; for EC50: 37 °C, serum-free medium, no phosphodiesterase inhibitors, read-out: GIPR CAMP (CHO–K1) pEC50 (converted); for Emax: CHO-K1, normalised to globally fitted maximum response
T1 construct: host or cells: PathHunter CHO-K1-βarr2-EA
T1 sequence (P48546 22-466): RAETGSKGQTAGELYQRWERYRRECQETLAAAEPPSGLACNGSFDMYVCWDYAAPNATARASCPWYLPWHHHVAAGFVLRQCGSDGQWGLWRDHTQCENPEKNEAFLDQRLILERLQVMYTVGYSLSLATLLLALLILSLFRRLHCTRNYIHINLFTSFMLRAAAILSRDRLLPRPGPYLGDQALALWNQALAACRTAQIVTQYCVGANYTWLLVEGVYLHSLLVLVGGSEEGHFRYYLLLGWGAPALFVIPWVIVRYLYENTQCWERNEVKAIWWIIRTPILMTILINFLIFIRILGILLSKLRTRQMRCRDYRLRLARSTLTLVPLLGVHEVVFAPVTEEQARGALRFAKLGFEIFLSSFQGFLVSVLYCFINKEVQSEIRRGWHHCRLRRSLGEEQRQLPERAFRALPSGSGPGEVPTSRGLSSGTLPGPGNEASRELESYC
Description: HEK293T cells were maintained in DMEM supplemented with 10% FBS and 1% penicillin/streptomycin. PathHunter CHO–K1-βarr2-EA cells stably expressing human GLP-1R, GCGR, or GIPR and PathHunter CHO–K1-βarr1-EA cells stably expressing GCGR were obtained from DiscoverX and maintained in Ham's F12 medium with 10% FBS and 1% penicillin/streptomycin. Stable HEK293-SNAP-GLP-1R cells were maintained in DMEM supplemented with 10% FBS, 1% penicillin/streptomycin, and 1 mg/ml of G418. INS-1 832/3 cells, a gift from Professor Chris Newgard (Duke University), were maintained in RPMI with 11 mM of glucose supplemented with 10% FBS, 10 mM of HEPES, 1 mM of pyruvate, 50 μM of β-mercaptoethanol, and 1% penicillin/streptomycin. Huh7 cells stably expressing human GCGR (Huh7-GCGR) were maintained in DMEM supplemented with 10% FBS, 1 mg/ml of G418, and 1% penicillin/streptomycin.
PathHunter cells were stimulated with the indicated concentration of agonist for 30 min at 37 °C in serum-free medium without phosphodiesterase inhibitors. INS-1 832/3 cells were stimulated with the indicated concentration of agonist for 10 min at 37 °C in serum-free medium with 100 μM of 3-isobutyl-1-methylxanthine (IBMX). Primary dispersed mouse islet cells prepared by triturating intact islets in 0.05% trypsin/EDTA for 3 min at 37 °C were stimulated with the indicated concentration of agonist for 5 min at 37 °C in serum-free medium with 11 mM of glucose and 500 μM of IBMX. Primary mouse hepatocytes were stimulated in serum-free medium with 100 μM of IBMX for 10 min or 16 h in serum-free medium with 100 μM of IBMX added for the final 10 min of incubation. Huh7-GCGR cells were stimulated in serum-free medium without phosphodiesterase inhibitors for 10 min or for 16 h in serum-free medium. Where relevant, forskolin (10 μM) was added as a positive or normalisation control. At the end of each incubation, cAMP was then assayed by HTRF (Cisbio cAMP Dynamic 2) and concentration-response curves were constructed with 3-parameter curve fitting using Prism 8.0.

[2] = biological target: T2, SNAP-GLP-1R (Homo sapiens, UniProt P43220); assay: GLP-1R internalisation by DERET in HEK293-SNAP-GLP-1R cells; format: cell-based; conditions: average response of last 3 time points of 30 min, mean ± SEM, n = 5, read-out: DERET (HEK293-SNAP-GLP-1R) pEC50 (converted)
T2 construct: expressed in transfected cells
Description: The assay was performed as previously described. HEK-SNAP-GLP-1R cells were labelled using 40 nM of SNAP-Lumi4-Tb in complete medium for 60 min at room temperature. After washing, the cells were resuspended in HBSS containing 24 μM of fluorescein and dispensed into 96-well white plates. A baseline read was serially recorded for 5 min using a FlexStation 3 instrument at 37 °C in TR-FRET mode using the following settings: λex at 340 nm, λem at 520 and 620 nm, auto cut-off, delay of 400 μs, and integration time of 1500 μs? Ligands were then added, after which the signals were repeatedly recorded for 30 min. The fluorescence signals were expressed ratiometrically after first subtracting signals from wells containing 24 μM of fluorescein but no cells. Internalisation was quantified as the AUC relative to the individual well baseline, and concentration-response curves were generated with Prism 8.0.

[3] = biological target: T3, recombinant DPP-4 (Homo sapiens, UniProt P27487); assay: DPP-4 peptide degradation assay; format: in vitro ADME; conditions: 10 nmol peptide in 750 μl 100 mM Tris–HCl pH 8, 10 mU recombinant DPP-4, 37 °C, 1 or 24 h, intact peptide by RP-HPLC (C18), UV 214 nm, vs no-enzyme control, n = 3
T3 construct: purchased R&D Systems
Description: Then, 10 mU of recombinant DPP-4 (R&D Systems) or no enzyme as a control for non-enzymatic degradation over the same time period was added to the reconstituted peptide. Reactions were incubated at 37 °C and 120 μl samples were collected from the reaction vessel at the indicated time points. Then, 5 μl of 10% trifluoroacetic acid (TFA) was added to each sample to terminate enzyme activity. The samples were analysed by reverse-phase high-performance liquid chromatography (HPLC) with a linear acetonitrile/water gradient acidified with 0.1% TFA on Phenomenex Aeris Peptide 3.6 μm XB-C18 columns (150 × 4.6 mm). The eluted peptides were detected at 214 nm. Peptide degradation was calculated by comparing the area under the peak of the original compound with and without enzyme.

T3 sequence (P27487 whole entry, species assumed): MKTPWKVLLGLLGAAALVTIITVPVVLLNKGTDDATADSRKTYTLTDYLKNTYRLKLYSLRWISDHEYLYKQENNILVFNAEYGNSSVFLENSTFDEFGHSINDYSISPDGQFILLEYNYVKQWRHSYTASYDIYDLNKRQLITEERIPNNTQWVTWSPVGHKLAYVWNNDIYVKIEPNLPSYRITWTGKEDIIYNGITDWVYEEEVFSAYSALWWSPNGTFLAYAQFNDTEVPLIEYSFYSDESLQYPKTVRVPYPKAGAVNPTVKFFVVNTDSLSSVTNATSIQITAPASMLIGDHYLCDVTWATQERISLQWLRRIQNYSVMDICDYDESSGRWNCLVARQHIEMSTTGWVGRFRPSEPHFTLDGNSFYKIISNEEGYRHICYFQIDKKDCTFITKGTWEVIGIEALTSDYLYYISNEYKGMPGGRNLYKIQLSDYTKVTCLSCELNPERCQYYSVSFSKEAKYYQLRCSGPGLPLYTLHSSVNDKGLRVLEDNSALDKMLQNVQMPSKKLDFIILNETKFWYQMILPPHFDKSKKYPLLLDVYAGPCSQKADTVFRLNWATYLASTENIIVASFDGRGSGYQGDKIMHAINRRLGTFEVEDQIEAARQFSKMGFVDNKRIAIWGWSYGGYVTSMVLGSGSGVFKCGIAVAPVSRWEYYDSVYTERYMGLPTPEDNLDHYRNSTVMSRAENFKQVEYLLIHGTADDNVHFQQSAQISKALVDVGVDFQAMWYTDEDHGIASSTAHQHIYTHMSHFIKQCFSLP
T2 sequence (P43220 24-463): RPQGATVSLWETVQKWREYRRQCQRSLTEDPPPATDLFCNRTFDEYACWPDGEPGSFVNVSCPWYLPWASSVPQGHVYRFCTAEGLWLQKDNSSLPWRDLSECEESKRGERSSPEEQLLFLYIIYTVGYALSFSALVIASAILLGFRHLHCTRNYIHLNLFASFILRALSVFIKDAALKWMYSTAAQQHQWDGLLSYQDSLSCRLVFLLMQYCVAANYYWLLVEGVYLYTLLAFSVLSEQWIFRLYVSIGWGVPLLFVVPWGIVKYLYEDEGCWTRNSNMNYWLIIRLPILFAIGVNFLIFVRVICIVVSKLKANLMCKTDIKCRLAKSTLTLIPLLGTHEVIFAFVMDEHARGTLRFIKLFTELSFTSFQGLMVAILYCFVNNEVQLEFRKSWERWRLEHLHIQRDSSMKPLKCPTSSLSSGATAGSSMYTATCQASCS

Compound | EC50 [1] | Emax [1] | EC50 [2] | Resistance to DPP-4-mediated degradation [3]
CC[C@H](C)[C@H](NC(=O)[C@H](Cc1ccccc1)NC(=O)[C@H](CCC(=O)O)NC(=O)[C@H](CCC(N)=O)NC(=O)[C@H](C)NC(=O)[C@H](CCCNC(=N)N)NC(=O)[C@H](CCCCN)NC(=O)[C@H](C)NC(=O)[C@H](CC(=O)O)NC(=O)[C@H](CC(C)C)NC(=O)[C@H](Cc1ccc(O)cc1)NC(=O)[C@H](CCCCN)NC(=O)[C@H](CO)NC(=O)[C@H](Cc1ccc(O)cc1)NC(=O)[C@H](CC(=O)O)NC(=O)[C@H](CO)NC(=O)[C@@H](NC(=O)[C@H](Cc1ccccc1)NC(=O)[C@@H](NC(=O)CNC(=O)[C@H](Cc1c[nH]cn1)NC(=O)C(C)(C)NC(=O)[C@@H](N)Cc1c[nH]cn1)[C@@H](C)O)[C@@H](C)O)C(=O)N[C@@H](CCC(=O)O)C(=O)N[C@@H](Cc1c[nH]c2ccccc12)C(=O)N[C@@H](CC(C)C)C(=O)N[C@@H](CC(C)C)C(=O)N[C@@H](C)C(=O)NCC(=O)N[C@@H](Cc1c[nH]cn1)C(=O)N[C@@H](Cc1c[nH]cn1)C(=O)N[C@@H](Cc1c[nH]cn1)C(=O)N[C@@H](Cc1c[nH]cn1)C(=O)N[C@@H](Cc1c[nH]cn1)C(=O)N1CCC[C@H]1C(=O)N[C@@H](CO)C(=O)N[C@@H](Cc1c[nH]c2ccccc12)C(=O)O [SRB103H] (H-H[Aib]HGTFTSDYSKYLDAKRAQEFIEWLLAGHHHHHPSW-OH) | 25.1 nM | 101 ± 5% | 20 nM | highly resistant to DPP-4-mediated degradation
CC[C@H](C)[C@H](NC(=O)[C@H](Cc1ccccc1)NC(=O)[C@H](CCC(=O)O)NC(=O)[C@H](CCC(N)=O)NC(=O)[C@H](C)NC(=O)[C@H](CCCNC(=N)N)NC(=O)[C@H](CCCCN)NC(=O)[C@H](C)NC(=O)[C@H](CC(=O)O)NC(=O)[C@H](CC(C)C)NC(=O)[C@H](Cc1ccc(O)cc1)NC(=O)[C@H](CCCCN)NC(=O)[C@H](CO)NC(=O)[C@H](Cc1ccc(O)cc1)NC(=O)[C@H](CC(=O)O)NC(=O)[C@H](CO)NC(=O)[C@@H](NC(=O)[C@H](Cc1ccccc1)NC(=O)[C@@H](NC(=O)CNC(=O)[C@H](CCC(N)=O)NC(=O)C(C)(C)NC(=O)[C@@H](N)Cc1c[nH]cn1)[C@@H](C)O)[C@@H](C)O)C(=O)N[C@@H](CCC(=O)O)C(=O)N[C@@H](Cc1c[nH]c2ccccc12)C(=O)N[C@@H](CC(C)C)C(=O)N[C@@H](CC(C)C)C(=O)N[C@@H](C)C(=O)NCC(=O)N[C@@H](Cc1c[nH]cn1)C(=O)N[C@@H](Cc1c[nH]cn1)C(=O)N[C@@H](Cc1c[nH]cn1)C(=O)N[C@@H](Cc1c[nH]cn1)C(=O)N[C@@H](Cc1c[nH]cn1)C(=O)N1CCC[C@H]1C(=O)N[C@@H](CO)C(=O)N[C@@H](Cc1c[nH]c2ccccc12)C(=O)O [SRB103Q] (H-H[Aib]QGTFTSDYSKYLDAKRAQEFIEWLLAGHHHHHPSW-OH) | 100 nM | 92 ± 9% | 20 nM | highly resistant to DPP-4-mediated degradation
